Five compounds from patent US9856242B2, “5-fluoro-N-(pyridin-2-yl)pyridin-2-amine derivatives containing a sulfone group” (Bayer Pharma Aktiengesellschaft, priority 2014, dated 2018) can be followed below.

For one experiment, the system named is HeLa-MaTu-ADR cells. The experiment is described as follows: Proliferation assay (Method 3), HeLa-MaTu-ADR. Type of experiment: cell-based. The settings on record: 96 h; multidrug-resistant human cervical carcinoma, 4 days, crystal violet; read-out: Inhibition of HeLa-MaTu-ADR cell proliferation IC50. The protocol: (§1) Cultivated tumour cells (HeLa, human cervical tumour cells, ATCC CCL-2; NCI-H460, human non-small cell lung carcinoma cells, ATCC HTB-177; A2780, human ovarian carcinoma cells, ECACC #93112519; DU 145, hormone-independent human prostate carcinoma cells, ATCC HTB-81; HeLa-MaTu-ADR, multidrug-resistant human cervical carcinoma cells, EPO-GmbH Berlin; Caco-2, human colorectal carcinoma cells, ATCC HTB-37; B16F10, mouse melanoma cells, ATCC CRL-6475) were plated at a density of 5,000 cells/well (DU145, HeLa-MaTu-ADR), 3,000 cells/well (NCI-H460, HeLa), 2,500 cells/well (A2780), 1,500 cells/well (Caco-2), or 1,000 cells/well (B16F10) in a 96-well multititer plate in 200 μL of their respective growth medium supplemented 10% fetal calf serum. After 24 hours, the cells of one plate (zero-point plate) were stained with crystal violet (see below), while the medium of the other plates was replaced by fresh culture medium (200 μl), to which the test substances were added in various concentrations (0 μM, as well as in the range of 0.001-10 μM; the final concentration of the solvent dimethyl sulfoxide was 0.5%). The cells were incubated for 4 days in the presence of test substances. Cell proliferation was determined by staining the cells with crystal violet: the cells were fixed by adding 20 μl/measuring point of an 11% glutaric aldehyde solution for 15 minutes at room temperature. After three washing cycles of the fixed cells with water, the plates were dried at room temperature. The cells were stained by adding 100 μl/measuring point of a 0.1% crystal violet solution (pH 3.0). After three washing cycles of the stained cells with water, the plates were dried at room temperature. The dye was dissolved by adding 100 μl/measuring point of a 10% acetic acid solution. The extinction was determined by photometry at a wavelength of 595 nm. The change of cell number, in percent, was calculated by normalization of the measured values to the extinction values of the zero-point plate (=0%) and the extinction of the untreated (0 μm) cells (=100%). The IC50 values (inhibitory concentration at 50% of maximal effect) were determined by means of a 4 parameter fit.

Another experiment relates to B16F10 cells. The experiment is described as follows: Proliferation assay (Method 3), B16F10. The format is cell-based. The following applies: B16-F10, 96 h; mouse melanoma, 4 days, crystal violet; read-out: Inhibition of B16F10 cell proliferation IC50. The procedure:
as §1

The subject of a further experiment is NCI-H460 cells. Nature of the experiment: Proliferation assay (Method 3), NCI-H460. Type of experiment: cell-based. The settings on record: NCI-H460, 96 h; human non-small cell lung carcinoma, 4 days, crystal violet; read-out: Inhibition of NCI-H460 cell proliferation IC50. The procedure: as §1
A further experiment relates to Caco-2 cells. The experiment is described as follows: Proliferation assay (Method 3), Caco-2. The format is cell-based. The settings on record: Caco-2, 96 h; human colorectal carcinoma, 4 days, crystal violet; read-out: Inhibition of Caco-2 cell proliferation IC50. The procedure:
as §1

For another experiment, the target named is T1, CDK9/CycT1 (Homo sapiens, UniProt P50750).
T1 construct: Recombinant full-length His-tagged human CDK9 and CycT1; His; purchased Invitrogen PV4131; host or cells: insect cells
T1 sequence (P50750 whole entry): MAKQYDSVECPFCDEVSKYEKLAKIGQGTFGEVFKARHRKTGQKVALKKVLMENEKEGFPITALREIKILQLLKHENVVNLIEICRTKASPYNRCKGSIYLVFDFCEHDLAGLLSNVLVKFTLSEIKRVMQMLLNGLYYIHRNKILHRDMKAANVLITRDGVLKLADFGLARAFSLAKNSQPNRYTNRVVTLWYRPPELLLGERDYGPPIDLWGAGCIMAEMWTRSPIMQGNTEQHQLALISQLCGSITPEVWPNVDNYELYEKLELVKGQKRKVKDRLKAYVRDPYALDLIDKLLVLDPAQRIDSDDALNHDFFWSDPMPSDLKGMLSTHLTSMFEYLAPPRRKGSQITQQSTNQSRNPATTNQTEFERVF
T1 sequence (O60563 whole entry partner): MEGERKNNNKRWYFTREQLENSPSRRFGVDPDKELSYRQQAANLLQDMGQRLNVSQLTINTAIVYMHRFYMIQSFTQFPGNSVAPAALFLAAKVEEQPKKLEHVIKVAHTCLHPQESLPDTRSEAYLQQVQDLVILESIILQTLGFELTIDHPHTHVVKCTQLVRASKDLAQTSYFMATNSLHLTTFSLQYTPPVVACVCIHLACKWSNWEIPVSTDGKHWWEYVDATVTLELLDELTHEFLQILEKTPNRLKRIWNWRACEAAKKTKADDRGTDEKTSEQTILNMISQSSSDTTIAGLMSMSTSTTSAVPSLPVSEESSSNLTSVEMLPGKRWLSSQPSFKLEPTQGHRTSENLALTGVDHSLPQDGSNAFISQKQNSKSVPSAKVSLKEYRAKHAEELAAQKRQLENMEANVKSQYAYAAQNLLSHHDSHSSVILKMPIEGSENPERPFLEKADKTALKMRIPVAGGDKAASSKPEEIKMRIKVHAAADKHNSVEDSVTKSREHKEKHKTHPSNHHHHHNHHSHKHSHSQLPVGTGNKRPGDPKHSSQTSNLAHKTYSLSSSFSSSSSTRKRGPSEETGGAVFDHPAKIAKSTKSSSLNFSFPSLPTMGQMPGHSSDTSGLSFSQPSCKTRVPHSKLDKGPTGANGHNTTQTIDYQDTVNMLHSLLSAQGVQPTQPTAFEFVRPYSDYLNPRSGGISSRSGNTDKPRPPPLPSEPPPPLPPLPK
The experiment is described as follows: CDK9/CycT1 high ATP kinase assay (Method 1b, TR-FRET, 2 mM ATP). Type of experiment: biochemical. The settings on record: for pIC50: Method 1b, 2 mM ATP; for Selectivity high ATP CDK9/high ATP CDK2: according to Methods 1b and 2b (ratio of high ATP CDK2 IC50 to high ATP CDK9 IC50). The protocol: 1b. CDK9/CycT1 High ATP Kinase Assay
CDK9/CycT1-inhibitory activity of compounds of the present invention at a high ATP concentration after preincubation of enzyme and test compounds was quantified employing the CDK9/CycT1 TR-FRET assay as described in the following paragraphs.
Recombinant full-length His-tagged human CDK9 and CycT1, expressed in insect cells and purified by Ni-NTA affinity chromatography, were purchase from Invitrogen (Cat. No PV4131). As substrate for the kinase reaction biotinylated peptide biotin-Ttds-YISPLKSPYKISEG (C-terminus in amid form) was used which can be purchased e.g. form the company JERINI peptide technologies (Berlin, Germany). For the assay 50 n1 of a 100 fold concentrated solution of the test compound in DMSO was pipetted into a black low volume 384 well microtiter plate (Greiner Bio-One, Frickenhausen, Germany), 2 μl of a solution of CDK9/CycT1 in aqueous assay buffer [50 mM Tris/HCl pH 8.0, 10 mM MgCl2, 1.0 mM dithiothreitol, 0.1 mM sodium ortho-vanadate, 0.01% (v/v) Nonidet-P40 (Sigma)] were added and the mixture was incubated for 15 min at 22° C. to allow pre-binding of the test compounds to the enzyme before the start of the kinase reaction. Then the kinase reaction was started by the addition of 3 μl of a solution of adenosine-tri-phosphate (ATP, 3.3 mM=>final conc. in the 5 μl assay volume is 2 mM) and substrate (1.67 μM=>final conc. in the 5 μl assay volume is 1 μM) in assay buffer and the resulting mixture was incubated for a reaction time of 25 min at 22° C. The concentration of CDK9/CycT1 was adjusted depending of the activity of the enzyme lot and was chosen appropriate to have the assay in the linear range, typical concentrations were in the range of 0.5 μg/mL. The reaction was stopped by the addition of 5 μl of a solution of TR-FRET detection reagents (0.2 μM streptavidine-XL665 [Cisbio Bioassays, Codolet, France] and 1 nM anti-RB(pSer807/pSer811)-antibody from BD Pharmingen [#558389] and 1.2 nM LANCE EU-W1024 labeled anti-mouse IgG antibody [Perkin-Elmer, product no. AD0077]) in an aqueous EDTA-solution (100 mM EDTA, 0.2% (w/v) bovine serum albumin in 100 mM HEPES/NaOH pH 7.0).
The resulting mixture was incubated 1 h at 22° C. to allow the formation of complex between the phosphorylated biotinylated peptide and the detection reagents. Subsequently the amount of phosphorylated substrate was evaluated by measurement of the resonance energy transfer from the Eu-chelate to the streptavidine-XL. Therefore, the fluorescence emissions at 620 nm and 665 nm after excitation at 350 nm was measured in a HTRF reader, e.g. a Rubystar (BMG Labtechnologies, Offenburg, Germany) or a Viewlux (Perkin-Elmer). The ratio of the emissions at 665 nm and at […] was taken as the measure for the amount of phosphorylated substrate. The data were normalised (enzyme reaction without inhibitor=0% inhibition, all other assay components but no enzyme=100% inhibition).

Another experiment deals with HeLa cells. Nature of the experiment: Proliferation assay (Method 3), HeLa. The format is cell-based. The settings on record: 96 h, human cervical tumour, 4 days, crystal violet, read-out: Inhibition of HeLa cell proliferation IC50. The protocol:
as §1

The subject of a further experiment is DU145 cells. The experiment is described as follows: Proliferation assay (Method 3), DU145. The following applies: DU-145, 96 h; hormone-independent human prostate carcinoma, 4 days, crystal violet; read-out: Inhibition of DU145 cell proliferation IC50. Type of experiment: cell-based. The procedure:
as §1

pIC50: −log10 of the molar value.

`CS(=O)(=O)Cc1cc(Nc2cc(-c3ccc(F)c4ccoc34)c(F)cn2)nc(C(F)(F)F)c1` [Example 4, 5-Fluoro-4-(4-fluoro-1-benzofuran-7-yl)-N-{4-[(methylsulfonyl)methyl]-6-(trifluoromethyl)pyridin-2-yl}pyridin-2-amine]: the pIC50 was 7.64 in the experiment on HeLa-MaTu-ADR cells; 7.51 in the experiment on B16F10 cells; 7.48 in the experiment on NCI-H460 cells; 7.85 in the experiment on Caco-2 cells; 8.40 at CDK9/CycT1; 7.89 in the experiment on HeLa cells. Besides, the pIC50 with DU145 cells was 7.52.
For `CS(=O)(=O)Cc1ccnc(Nc2cc(-c3cccc4ccoc34)c(F)cn2)c1` [Example 5, 4-(1-Benzofuran-7-yl)-5-fluoro-N-{4-[(methylsulfonyl)methyl]pyridin-2-yl}pyridin-2-amine], the pIC50 in the experiment with HeLa-MaTu-ADR cells was 7.17; in the experiment with B16F10 cells, 6.92; with NCI-H460 cells it was 7.04; with Caco-2 cells, 7.21; against CDK9/CycT1, 8.70; with HeLa cells, 7.17. Also, the pIC50 with DU145 cells was 7.24.
Take `CS(=O)(=O)Cc1ccnc(Nc2cc(-c3ccc(F)c4ccoc34)c(F)cn2)c1` [Example 1, 5-Fluoro-4-(4-fluoro-1-benzofuran-7-yl)-N-{4-[(methylsulfonyl)methyl]pyridin-2-yl}pyridin-2-amine]: the pIC50 in the experiment with HeLa-MaTu-ADR cells is 7.44; in the experiment on B16F10 cells, 7.15; in the experiment on NCI-H460 cells, 7.43; with Caco-2 cells, 7.40; against CDK9/CycT1, 8.70; in the experiment on HeLa cells, 8.22. The pIC50 with DU145 cells is 7.47. Further, the “Selectivity high ATP CDK9/high ATP CDK2” value at CDK9/CycT1 is given as 268.
As to `Cc1cc(CS(C)(=O)=O)cc(Nc2cc(-c3ccc(F)c4ccoc34)c(F)cn2)n1` [Example 3, 5-Fluoro-4-(4-fluoro-1-benzofuran-7-yl)-N-{6-methyl-4-[(methylsulfonyl)methyl]pyridin-2-yl}pyridin-2-amine], the pIC50 in the experiment with HeLa-MaTu-ADR cells is 7.74; with B16F10 cells, 7.49; with NCI-H460 cells, 7.72; in the experiment on Caco-2 cells, 7.92; at CDK9/CycT1, 9.05; with HeLa cells, 7.92. The pIC50 in the experiment on DU145 cells is 7.62.
On to `CS(=O)(=O)Cc1cc(F)nc(Nc2cc(-c3ccc(F)c4ccoc34)c(F)cn2)c1` [Example 2, 5-Fluoro-4-(4-fluoro-1-benzofuran-7-yl)-N-{6-fluoro-4-[(methylsulfonyl)methyl]pyridin-2-yl}pyridin-2-amine], for which the pIC50 in the experiment with HeLa-MaTu-ADR cells was 7.62; in the experiment with B16F10 cells it was 7.23; with NCI-H460 cells it was 7.32; in the experiment on Caco-2 cells, 7.43; against CDK9/CycT1, 9.00; in the experiment with HeLa cells, 7.40. For the same compound, the pIC50 with DU145 cells was 7.44. In addition, the “Selectivity high ATP CDK9/high ATP CDK2” value on CDK9/CycT1 worked out at 517.
